Data on 7 compounds can be found in patent US11458142B2, “Compositions and methods for ameliorating pain” (The Board of Supervisors of Louisiana State University and …, priority 2017, dated 2022).

In data set [1] the test system is CD1 male mice. The data set can be described thus: Acetic acid-induced abdominal writhing assay. In kind it is in vivo, mouse. To be noted: for No. of writhes counted within a 10 min time interval, 25 min post drug administration, beginning 5 min after acetic acid injection: 75 mg/Kg body weight p.o., single animals, n = 7 (raw data for FIG. 1A); for number of writhes induced by injection of acetic acid: mean, vehicle only 42.3+/−7.2. The method, then:
Two different assays were utilized to quantify the analgesic effects of the compounds. All tests were performed on CD1 male mice. […] In some embodiments, the vehicle can comprise Agent K, 0.2%, Bio-serve, or Labrafil 1944 (Gottefosee, France). Compound or vehicle was administered orally by lavage under brief halothane anesthesia to animals fasted overnight.
Acetic acid-induced abdominal writhing assay. Contraction of the abdominal muscle and stretching of the hind limbs is induced as a response to intraperitoneal (ip) injection of an acetic acid solution, as described Hendershot and Forsaith, 1959. In this model of visceral pain, abdominal contractions (writhing) is induced in mice by an ip injection of 0.4% acetic acid at a dose of 10 mL/Kg, 25 min after drug administration. The number of writhes is counted for 10 min beginning 5 min after acetic acid injection. […] Data is expressed as mean±SEM, n=7.
(In general: An intraperitoneal irritant provokes the stretching counted in writhing tests.)

Data set [2] concerns CD1 male mice. The data set can be described thus: Tail-flick assay. In kind it is in vivo, mouse. Conditions: 600 mg/Kg per os, 30 minutes post injection; versus ApAP. The method, then: Two different assays were utilized to quantify the analgesic effects of the compounds. All tests were performed on CD1 male mice. […] In some embodiments, the vehicle can comprise Agent K, 0.2%, Bio-serve, or Labrafil 1944 (Gottefosee, France). Compound or vehicle was administered orally by lavage under brief halothane anesthesia to animals fasted overnight. Tail-flick assay. Analgesic effect of drugs was determined by using the reaction time (latency) of mice to thermal stimulation of the tail tip. All animals (CD1 male mice) were fasted overnight (15 hours) and, their baseline tail flick latency (seconds) was recorded using an IITC Tail Flick Analgesia Meter. The tail of each mouse was exposed to a focused beam of light and the latency to remove the tail from the path of the stimulus were recorded electronically using a photoelectric cell of the IITC Tail Flick Analgesia Meter. The stimulus intensity was adjusted to produce baseline latencies of 3-6 seconds. […] At 30 minutes post injection, tail flick latency was recorded again to determine total change in latency. […] Data expressed as mean±SEM, n=10.

The test system of data set [3] is mouse. The data set can be described thus: LPS-induced fever mouse model. In kind it is in vivo. To be noted: versus ApAP, 2 h, 8 h and 10 h.
In data set [4] the test system is HepaRG and hHEPs. The data set can be described thus: LDH cytotoxicity assay in hepatocytes. In kind it is cell-based, human. To be noted: 500 μM and 1000 μM; time and dose-dependent. The method, then:
(§1) HepaRG cells procured from Thermo Fisher Scientific (Invitrogen) are terminally differentiated hepatic cells, which are derived from a hepatic progenitor cell line that retains many characteristics of primary human hepatocytes. […] LDH assay. Using the Pierce LDH Cytotoxicity assay kit from Thermo Scientific, cells were incubated in presence of various drug compounds, followed by collection of the medium supernatant. Release of LDH was measured in 96 well plate formats. The absorbance was measured at 490 nm and 680 nm and the final result was absorbance observed at 680 nm subtracted from absorbance observed at 490 nm (A490 nm-[…] nm). GSH assay. Using the ThiolTracker Violet Glutathione Detection reagent from Molecular Probes (Invitrogen), after hepatocytes were incubated in the presence of various compounds, incubation medium was removed, cells rinsed with D-PBS conditioned medium followed by incubation with pre-warmed ThiolTracker Violet dye (working solution prepared as per manufacturer's instructions) for 30 minutes. Fluorescence was measured at the following wavelengths: excitation (404 nm) and emission (526 nm). The finalized result was expressed as relative fluorescence units (RFU), which indicates the cellular level of reduced glutathione (GSH) in intact cells.

The subject of data set [5] is HepaRG and hHEPs. Put plainly: GSH assay (ThiolTracker Violet) in hepatocytes. To be noted: 500 μM and 1000 μM; time and dose-dependent. Format: cell-based, human. The method, then: as §1
Data set [6] concerns the target T1, CYP2E1 (Homo sapiens, UniProt P05181).
T1 construct: purchased Life Technologies, Invitrogen/Thermo Fisher Scientific; host or cells: insect cells (microsomes)
The data set can be described thus: VIVID CYP450 screening assay, CYP2E1. In kind it is in vitro ADME. Conditions: probe CYP enzyme specific fluorogenic substrate (not named). On the procedure: (§2) The […]450 screening assay kit (Life Technologies, Invitrogen/Thermo Fisher Scientific) was used as an in vitro high throughput screening. Here, each compound was mixed with a master pre-mix comprising of CYP450 BACULOSOMES (which are microsomes prepared from insect cells expressing a specific human P450 isoenzyme), reagent and regeneration system, which contained glucose-6-phosphate and glucose-6-phosphate dehydrogenase. The mixture was pre-incubated at room temperature for 20 minutes. Following this, each CYP enzyme specific substrate and NADP^+ were added and the mixture incubated at room temperature for 30 minutes. The reaction was stopped by addition of 0.5 M Tris base. CYP activity was evaluated by measuring the fluorescence of the fluorescent metabolite generated from each CYP enzyme specific substrate.

The target in data set [7] is T2, CYP3A4 (Homo sapiens, UniProt P08684).
T2 construct: purchased Life Technologies, Invitrogen/Thermo Fisher Scientific; host or cells: insect cells (microsomes)
T2 sequence (P08684 whole entry): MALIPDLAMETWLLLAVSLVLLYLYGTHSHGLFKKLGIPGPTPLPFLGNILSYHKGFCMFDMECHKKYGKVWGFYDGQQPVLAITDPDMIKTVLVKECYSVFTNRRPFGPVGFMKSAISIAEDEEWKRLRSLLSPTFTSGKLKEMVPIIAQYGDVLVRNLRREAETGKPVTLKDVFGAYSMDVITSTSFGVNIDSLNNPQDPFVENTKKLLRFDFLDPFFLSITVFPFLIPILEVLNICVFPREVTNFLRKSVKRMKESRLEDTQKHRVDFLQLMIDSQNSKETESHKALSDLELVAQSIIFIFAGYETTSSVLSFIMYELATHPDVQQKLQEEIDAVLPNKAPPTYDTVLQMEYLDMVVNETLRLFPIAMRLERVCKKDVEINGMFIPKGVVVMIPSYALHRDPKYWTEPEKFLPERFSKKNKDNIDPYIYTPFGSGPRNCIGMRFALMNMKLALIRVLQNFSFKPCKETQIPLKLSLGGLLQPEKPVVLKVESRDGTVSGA
Put plainly: VIVID CYP450 screening assay, CYP3A4. Format: in vitro ADME. To be noted: probe CYP enzyme specific fluorogenic substrate (not named). On the procedure: as §2

Data set [8] addresses T3, CYP2D6 (Homo sapiens, UniProt P10635).
T3 construct: purchased Life Technologies, Invitrogen/Thermo Fisher Scientific; host or cells: insect cells (microsomes)
The data set can be described thus: VIVID CYP450 screening assay, CYP2D6. Format: in vitro ADME. On the procedure: as §2

For data set [9], the system named is CD1 male mice. Put plainly: Liver function assays (ALT, AST, ALP) in serum. Format: in vivo, mouse. To be noted: 600 mg/kg PO.
Data set [10] has as its system CD1 male mice. Put plainly: Blood creatinine functional assay. Format: in vivo, mouse. Conditions: 600 mg/Kg PO, serum.

Values joined by “and” are separate entries in the source; they are usually repeats but may differ in a detail not shown here. Identical values can stand only once.

T3 sequence (P10635 whole entry): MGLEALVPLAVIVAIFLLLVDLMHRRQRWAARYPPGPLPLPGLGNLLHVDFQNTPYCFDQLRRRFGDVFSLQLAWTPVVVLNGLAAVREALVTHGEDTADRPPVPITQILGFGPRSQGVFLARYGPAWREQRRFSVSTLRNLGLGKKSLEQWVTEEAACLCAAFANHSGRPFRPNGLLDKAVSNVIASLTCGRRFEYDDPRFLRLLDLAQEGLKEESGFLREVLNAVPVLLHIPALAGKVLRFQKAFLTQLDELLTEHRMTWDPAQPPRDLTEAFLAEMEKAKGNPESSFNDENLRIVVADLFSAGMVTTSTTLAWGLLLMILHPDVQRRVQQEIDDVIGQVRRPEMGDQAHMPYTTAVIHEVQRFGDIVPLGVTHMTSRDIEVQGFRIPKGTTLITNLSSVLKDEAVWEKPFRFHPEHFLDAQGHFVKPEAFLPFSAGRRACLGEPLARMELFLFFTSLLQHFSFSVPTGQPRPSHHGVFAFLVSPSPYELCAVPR
T1 sequence (P05181 whole entry): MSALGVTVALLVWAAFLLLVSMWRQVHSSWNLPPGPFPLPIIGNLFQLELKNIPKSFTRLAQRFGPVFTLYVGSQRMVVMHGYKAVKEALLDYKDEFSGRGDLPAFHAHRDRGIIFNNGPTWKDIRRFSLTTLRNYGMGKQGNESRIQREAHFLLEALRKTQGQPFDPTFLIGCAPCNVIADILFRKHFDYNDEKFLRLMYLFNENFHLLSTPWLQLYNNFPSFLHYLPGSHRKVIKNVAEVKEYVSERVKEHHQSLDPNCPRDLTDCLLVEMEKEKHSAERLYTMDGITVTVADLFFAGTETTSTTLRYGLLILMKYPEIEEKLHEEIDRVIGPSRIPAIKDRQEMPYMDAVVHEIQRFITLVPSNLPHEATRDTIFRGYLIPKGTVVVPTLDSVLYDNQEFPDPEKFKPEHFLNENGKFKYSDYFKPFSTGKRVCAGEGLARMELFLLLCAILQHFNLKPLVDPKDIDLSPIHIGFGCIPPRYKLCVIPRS

For `CC(C)CNC(=O)c1ccccc1S(=O)(=O)NCC(=O)Nc1ccc(O)cc1` [SRP6p], the “No. of writhes counted within a 10 min time interval, 25 min post drug administration, beginning 5 min after acetic acid injection” value in data set [1] is 14 (2×) and 17 and 24 and 26 and 29 and 30.
As a reminder, the inhibition is the share of the control response that was lost under treatment. The low end stands for little suppression, the high end for strong suppression. As usually defined, the melting point is the temperature, or range, at which the solid turns liquid. The compound `O=C(CNS(=O)(=O)c1ccccc1C(=O)NCCc1cccc(O)c1O)Nc1ccc(O)cc1` [SRP6r] came in with a melting point of 87 to 89 °C. For the same compound, in data set [1], the “No. of writhes counted within a 10 min time interval, 25 min post drug administration, beginning 5 min after acetic acid injection” value was 9 and 12 and 18 and 20 and 25 and 26 (2×); the “number of writhes induced by injection of acetic acid” value is recorded as 9.5+/−4. The “analgesia in tail flick test (latency)” value in [2] is recorded as “comparable significant analgesia”. Also, the “antipyresis (temperature curves)” value in data set [3] is reported as “comparable antipyresis to ApAP”. Also, in data set [4], the “lactate dehydrogenase (LDH) release” value is on record as “consistently decreased”. In [5], the “amount of reduced glutathione (GSH)” value is “increased”. The compound further came in with an inhibition at 30 min in data set [6] of around 25%. Further, the inhibition at 30 min in [7] was around 25%. In addition, the “inhibitory effect for CYP2D6” value in data set [8] is “marginal inhibitory effect”.
In the case of `CCN(CC)C(=O)c1ccccc1S(=O)(=O)NCC(=O)Nc1ccc(O)cc1` [SRP6d, 2-<[(4-Hydroxy-phenylcarbamoyl)-methyl]-sulfamoyl>-N,N-diethyl-benzamide], in data set [1], the “No. of writhes counted within a 10 min time interval, 25 min post drug administration, beginning 5 min after acetic acid injection” value is 15 (3×) and 11 and 14 and 20 and 18; the “number of writhes induced by injection of acetic acid” value is recorded as 15.7+/−1.2. Further, the “analgesia in tail flick test (latency)” value in [2] is listed as “comparable significant analgesia”. Moreover, the “antipyresis (temperature curves)” value in data set [3] is listed as “comparable antipyresis to ApAP”. Further, in data set [4], the “lactate dehydrogenase (LDH) release” value is listed as “consistently decreased”. For the same compound, the “amount of reduced glutathione (GSH)” value in [5] is reported as “increased”. Besides, in data set [6], the inhibition at 30 min was around 25%. The inhibition at 30 min in data set [7] is around 25%. Further, in [8], the “inhibitory effect for CYP2D6” value was “marginal inhibitory effect”.
With `CC(=O)Nc1ccc(O)cc1` [ApAP, N-acetyl-para-aminophenol, reference compound], the “No. of writhes counted within a 10 min time interval, 25 min post drug administration, beginning 5 min after acetic acid injection” value in data set [1] is 11 and 12 and 14 and 15 and 16 (3×). Besides, the “ALT, AST and AP enzyme activity (liver function tests)” value in [9] is reported as “Increased levels”. Further, the blood creatinine levels result in data set [10] is “increased levels of creatinine”.
For `CCCCNC(=O)c1ccccc1S(=O)(=O)NCC(=O)Nc1ccc(O)cc1` [SRP6i], the “No. of writhes counted within a 10 min time interval, 25 min post drug administration, beginning 5 min after acetic acid injection” value in data set [1] was 7 and 12 and 16 and 17 and 22 and 27 and 33.
For `COc1ccc(CNC(=O)c2ccccc2S(=O)(=O)NCC(=O)Nc2ccc(O)cc2)cc1` [SRP6j], the “No. of writhes counted within a 10 min time interval, 25 min post drug administration, beginning 5 min after acetic acid injection” value in [1] was 10 and 14 and 16 and 17 and 18 (2×) and 19.
Regarding `O=C(CNS(=O)(=O)c1ccccc1C(=O)NC1CCCC1)Nc1ccc(O)cc1` [SRP6o], the “No. of writhes counted within a 10 min time interval, 25 min post drug administration, beginning 5 min after acetic acid injection” value in data set [1] was 11 and 14 and 16 and 17 (2×) and 18 and 24.
